How the values were obtained:
5-HT1A receptors = molecular target: T1, 5-HT1A receptors (Rattus norvegicus, UniProt P19327); experiment: 5-HT1A receptor binding test
T1 construct: from tissue; host or cells: hippocampus (membranes)
T1 sequence (P19327 1-422): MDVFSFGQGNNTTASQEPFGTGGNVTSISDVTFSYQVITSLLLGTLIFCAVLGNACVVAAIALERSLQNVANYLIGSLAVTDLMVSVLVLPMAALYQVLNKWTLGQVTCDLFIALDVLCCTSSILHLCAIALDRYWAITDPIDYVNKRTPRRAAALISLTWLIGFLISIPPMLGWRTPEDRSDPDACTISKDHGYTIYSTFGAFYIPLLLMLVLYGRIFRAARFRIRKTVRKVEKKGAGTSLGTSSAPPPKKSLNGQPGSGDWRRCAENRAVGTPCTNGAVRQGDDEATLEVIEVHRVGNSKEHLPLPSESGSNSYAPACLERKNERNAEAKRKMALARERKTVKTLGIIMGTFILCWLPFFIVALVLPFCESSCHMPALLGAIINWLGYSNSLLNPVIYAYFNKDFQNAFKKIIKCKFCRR
From the text: (§1) In particular, they inhibit 5-HT reuptake. […] Due to a 5-HT-agonistic action and 5-HT reuptake inhibition, serotonin remains in the synaptic cleft for longer and the serotonin action is reinforced. Active ingredients having such properties are therefore particularly suitable as antidepressants and anxiolytics. The compounds of the formula I inhibit the binding of tritiated serotonin ligands to hippocampal receptors (Cossery et al., European J. Pharmacol. 140 (1987), 143-155) and synaptosomal serotonin reuptake (Sherman et al., Life Sci. 23 (1978), 1863-1870).
The 5-HT1A-agonistic action can be measured in vitro, for example, with the aid of the (serotonin) binding test, as described by Matzen et al. (J. Med. Chem., 43 (2000), 1149-57), in particular on page 1156 with reference to Eur. J. Pharmacol., 140 (1987), 143-155. In addition, the 5-HT1A-agonistic action can be measured with the aid of the GTPgammaS test described by Newman-Tancredi et al. (Eur. J. Pharmacol. 307 (1996), 107-11).
Many of the compounds synthesised have nanomolar affinity to the 5-HT1A receptors and nanomolar reuptake inhibition of serotonin. • 5-{4-[4-(5-Cyano-2-oxo-2,3-dihydro-1H-indol-3-yl)butyl]piperazin-1-yl}-benzofuran-2-carboxamide

serotonin reuptake = molecular target: T2, serotonin reuptake (Rattus norvegicus, UniProt P31652); experiment: serotonin reuptake inhibition (SSRI); format: biochemical
T2 construct: synaptosomal serotonin reuptake (Sherman et al., Life Sci. 23 (1978), 1863-1870); from tissue
From the text: as §1
For in-vitro determination of 5-HT reuptake inhibition, synaptosomal reuptake inhibition (Wong et al., Neuropsycho-pharmacology 8 (1993), 22-33) and p-chloroamphetamine antagonism (Fuller et al. J. Pharmacol. Exp. Ther. 212 (1980), 115-119) is measured. Serotonin reuptake inhibition can in addition also be investigated with the aid of the Waldmeier method ex vivo in the brain tissue of mice (European J. Pharmacol. 1977, 46, 387-92), and by microdialysis, which is described by DiChiara (Trends in Pharmacol. Sci., 11 (1990), 116-121). To this end, a physiological solution is perfused through a microdialysis container implanted into a rat brain. During this perfusion, the solution takes up the neurotransmitters liberated in the brain and is subsequently analysed. […]

T2 sequence (P31652 whole entry): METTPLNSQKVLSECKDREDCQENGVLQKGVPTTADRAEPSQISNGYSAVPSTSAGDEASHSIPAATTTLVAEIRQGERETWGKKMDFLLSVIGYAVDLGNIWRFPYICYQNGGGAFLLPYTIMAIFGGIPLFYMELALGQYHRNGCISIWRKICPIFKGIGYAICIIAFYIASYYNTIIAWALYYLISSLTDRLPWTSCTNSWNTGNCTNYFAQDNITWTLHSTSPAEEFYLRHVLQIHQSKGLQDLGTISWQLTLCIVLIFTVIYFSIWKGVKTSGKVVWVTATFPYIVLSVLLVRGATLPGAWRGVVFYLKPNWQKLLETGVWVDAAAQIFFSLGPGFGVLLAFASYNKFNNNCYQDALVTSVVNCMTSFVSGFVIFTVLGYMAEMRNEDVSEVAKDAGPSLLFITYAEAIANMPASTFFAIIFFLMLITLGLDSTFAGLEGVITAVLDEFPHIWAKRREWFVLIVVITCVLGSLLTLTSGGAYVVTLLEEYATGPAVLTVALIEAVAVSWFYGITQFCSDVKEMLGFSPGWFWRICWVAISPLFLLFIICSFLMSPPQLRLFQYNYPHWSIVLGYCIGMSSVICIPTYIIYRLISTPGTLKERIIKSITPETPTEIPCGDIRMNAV

Row | IC50 (5-HT1A receptors) | IC50 (serotonin reuptake) | Structure (SMILES)
1 | 18 nM | 2.7 nM | N#Cc1cc2c(CCCCN3CCN(c4ccc5oc(C(N)=O)cc5c4)CC3)c[nH]c2cc1O [5-{4-[4-(5-cyano-6-hydroxy-1H-indol-3-yl)butyl]piperazin-1-yl}-benzofuran-2-carboxamide]
2 | 1.7 nM | 2.9 nM | N#Cc1ccc2c(c1)C(CCCCN1CCN(c3ccc4oc(C(N)=O)cc4c3)CC1)C(=O)N2 (stereo not shown) [5-{4-[4-(5-cyano-2-oxo-2,3-dihydro-1H-indol-3-yl)butyl]-piperazin-1-yl}benzofuran-2-carboxamide]
